Where two headings read alike, the source gives them in different places.

One may read the IC50 as the midpoint of a concentration-inhibition curve. In general, half-life refers to how long it takes for the measured level to halve.

For data set [1], the system named is NCI/ADR-RES multi-drug resistant ovarian cancer cell line. The experiment in a line: Tumor cell growth inhibition, crystal violet (Example 2). The note with it: Homo sapiens. Format: cell-based. The text has this:
(§1) In order to investigate the photolysis of the drugs in a system amenable to cell culture use, a custom UV irradiation apparatus was constructed, consisting of 3 small blacklight fluorescent bulbs (Southern New England Ultraviolet Co., λmax=350 nm) set between two ring stands and suspended at a height of 11.5 cm. The bulbs' housing was reflective aluminum so as to direct as much UV irradiation as possible downward toward the plate. Upon installation in sterile cell culture hood, the power of the system was measured at approximately 6-7 mW using a Scientech laser power meter. Prior to experimentation, the hood and irradiation apparatus was sterilized with 254 nm germicidal UV irradiation overnight. Using this setup, 100 μM of 4,5-dimethoxy-2-nitrobenyl alcohol (DMNA), photodoxazolidine R═H, and glucose-PEG-photodoxazoldine were irradiated in individual wells of a 24-well plate. Initially, 50 μL of a DMSO stock was diluted with 950 μL of PBS and aliquots of 50 μL were removed at various times (0-180 min), mixing by pipetting each time. The timepoints were analyzed by HPLC (method 2) and plotted as fractional conversion versus time. […] Therefore, a second experiment was performed in which the PBS was replaced with 1:1 acetonitrile:water. With this system of 5% DMSO/47.5% acetonitrile/47.5% water, no visible precipitation was produced over the course of the reaction.
(§2) The ovarian carcinoma line NCl/ADR-RES (ADR) was grown in high-glucose Dulbecco's Modified Eagle Medium (DMEM) supplemented with 10% fetal bovine serum (FBS), 200 units/mL of penicillin and 200 μg/mL of streptomycin. The breast carcinoma line MDA-MB-231 was cultured in low-glucose DMEM with the same additives. Both lines were maintained in a humidified incubator with 5% CO2/95% air at 37° C. UV irradiations were performed with the apparatus described above.
(§3) Growth inhibition experiments were performed by seeding cells into 96-well plates or 24-well plates at densities of 1000-1500 cells per well or 8000 cells per well, respectively, and allowing the cells to adhere overnight. The media was then replaced with a range of aqueous concentrations of the drug in question and allowed to incubate at 37° C. with the cells for a span of time (Inc1) which ranged from 1 min to 48 hours. Irradiation was performed at room temperature with the plate's lid removed and ranged from 1 to 30 min. In some experiments, the drug solution was removed following Inc1 and irradiated in clean media or PBS. Following irradiation, the cells were placed back into the 37° C. incubator for a second period of incubation (Inc2), which varied between 1 min and 24 h, prior to replacement with fresh media. Plates which received no irradiation but identical treatment otherwise were done in parallel. The cells were then grown until the no-drug control wells reached approximately 80% confluence or 5 days, whichever was shorter. […] The cells were fixed with 5% formalin in PBS, stained with crystal violet, washed with tap water, and air-dried. The stain was resolubilized in 50% isopropyl alcohol, 50% H2O containing 2% (w/v) SDS. The staining density was read on a multiwell plate reader at 588-600 nm. Percentage cell density was calculated relative to the irradiated no-drug control wells, plotted as a function of drug concentration, and fit using non-linear least squared analysis with a variable-slope dose response model in GraphPad Prism 5.0 software.
(§4) Although the introduction of a long-pass glass filter between the light source and the plate alleviated this effect to a small extent, a maximum irradiation time of 10 min was settled upon. […] Since a media change at that point would remove the cells as well, the re-adherence of the cell population was accomplished by the addition of a large volume (200 μL) of complete media following Inc2, and overnight incubation. Then, a full media change was done to remove the drug. […]

The nature of data set [2]: Quantum yield of photocleavage, He-Cd laser 325 nm, HPLC. The data set is classed as physicochemical. Here is the method: Initially, measurement of the quantum yield of photodoxazolidine R═H was done in a fully-absorbing solution of photoactive drug in a solution of 90% dimethylacetamide (DMA), 10% water in a 1×1 cm quartz cuvette equipped with a small magnetic stir bar. A stock of photodoxazolidine in DMA was diluted in 9:1 DMA:H2O to a final concentration of 373 μM in a final volume of 3.380 mL. […] The cuvette was placed into the path of an Omnichrome He-Cd laser (single-window power: 10.75 mW at 325 nm using a Scientech laser power meter). The solution was mixed by the stir bar, which was agitated with a magnetic stir plate placed vertically next to the cuvette. Aliquots of 20 μL were removed at times between 0 and 62 min of irradiation and those aliquots were analyzed by HPLC (method 2) for the ratio of dox to photodoxazolidine. The quantum yield was calculated from the ratio of molecules of doxorubicin (dox) formed to photons absorbed.
To allow for better comparison between the quantum yield of photocleavage of photodoxazolidine with the quantum yield for azido-PEG-photodoxazolidine, the measurement was retaken with 50% acetonitrile in water as a solvent. […] Photodoxazolidine (in DMF) was diluted with 30 mL of 50% acetonitrile to a final concentration of 104 μM. The solution was confirmed to be fully absorbing by monitoring the laser power exiting the cell throughout the course of the experiment, which never deviated from 0 mW. As above, the contents of the cell were mixed with a small magnetic stir bar. Aliquots of 50 μL were removed at various times and analyzed as described above. The calculated quantum yield in this solvent system was identical to that measured from the […] system used above.
Concentration of azido-PEG-photodoxazolidine was determined via absorbance (λ=480 nm, ε=11500 M^−1 cm^−1). A sample ([…]) was dissolved in 1 mL of ACN and transferred to a cuvette. A 12.4 mW Omnichrome HeCd was used to irradiate the solution for 30 min at 325 nm. Aliquots of 10 μL were collected at different times and analyzed by HPLC to determine the % Dox in relation to that of azido-PEG-photodoxazolidine. In calculating quantum yield: power (without cuvette)=12.4 mW, (with cuvette)=10.7 mW, incident light=11.55 mW; energy=0.462 J, 7.55×1017 photons; t=40 sec when % Dox=9.2. Experiments were performed in triplicate.
Azido-PEG-photodoxazolidine was irradiated with a 12.4 mW monochromatic laser at 325 nm for 30 min. Aliquots were collected throughout to determine the amount of azido-PEG-photodoxazolidine in relation to released doxorubicin, which was quantified by HPLC. […] The average of triplicate quantum yield experiments was 0.025. This value is in the low end of the quantum yield range, yet is beneficial because it signifies that UV must be applied for longer durations prior to release of the cytotoxic agent. This makes administration of this photo-activated prodrug safer, and its synthesis more practical.

Data set [3] deals with MDA-MB-231 breast carcinoma cells. Nature of the data set: Tumor cell uptake by flow cytometry. The data set is classed as cell-based, human. The following applies: 500 nM, 30 min to 4 h, compared against doxorubicin. Here is the method:
Uptake of the drugs by the cells was measured by flow cytometry. The cells were incubated with 500 nM photodoxazolidine R═H, azido-PEG-photodoxazolidine, or doxorubicin dissolved in 1:1 PBS:serum-free media for between 30 min and 4 h, after which the drug was removed and the cells washed with cold PBS. Cells were trypsinized to a single-cell suspension, rinsed again in cold PBS, and stored on ice for analysis by flow cytometry, monitoring the presence of the anthraquinone fluorophore (channel FL2). Cell populations were gated for intact cells in the side-scatter/forward-scatter plot and 10,000 gated events were scored for each timepoint. The mean fluorescence of the population was compared to the mean fluorescence of 10,000 gated events for an untreated population and the fold increase over background was plotted versus time of drug incubation.
Using MDA-MB-231 breast carcinoma cells, the cellular uptake of photodoxazolidine and azido-PEG-photodoxazolidine was analyzed by flow cytometry and compared against the uptake of doxorubicin.
A general note: Flow cytometry measures light scatter and fluorescence of single cells or particles in a stream.

Data set [4] can be described thus: In vivo body weight change as indication of toxicity. The following applies: 4 mg/kg dox equivalent iv weekly x6; photodoxazolidine with 18-FDG ip. Set-up: species or system nude mice. The method, then:
For reconstitution for intravenous injection into mice, dry photodoxazolidine R═H (23 mg) was dissolved in 785 μL of DMSO for a final concentration of 34.5 mM, labeled “Drug Stock,” and stored dark at −20° C. Shortly before injection, the Drug Stock was thawed and 20-50 μL was transferred to a new tube. To this tube, 6 volumes (relative to the Drug Stock volume) of PEG-400 and 4 volumes of propylene glycol (PG) were added and the solution thoroughly mixed by vortexing. Immediately prior to injection, 9 volumes of saline (0.9% NaCl) was added to the DMSO/PEG/PG solution of photodoxazolidine and mixed by vortexing. […] Therefore, this formulation was used as prepared. This protocol produces a final formulation of 5% DMSO, 30% PEG-400, 20% PG, 45% saline. A standard injection of 100 μL of this formulation delivers 4 mg dox equivalent/kg body weight for a mouse weighing 0.025 kg.
Luciferase-positive MDA-MB-231 cells were maintained in MEM culture medium supplemented with 10% heat inactivated fetal bovine serum and 2% penicillin/streptomycin. Prior to injection, typsinized cell populations were counted with a Z1 Coulter Particle counter, centrifuged, and resuspended in Hank's Balanced Salt Solution (HBSS) at a concentration of 4.0×10^7 cells/mL. […] Body weight and tumor growth were measured regularly. Tumor growth was measured optically from the bioluminescence signal from injection of luciferin. […]

For data set [5], the system named is MDA-MB-231 breast cancer cells. The experiment in a line: Tumor cell growth inhibition, crystal violet (Example 2). The following applies: Homo sapiens. Format: cell-based, human.
Source text: as §1, §2, §3, §4

Data set [6] deals with cancer cells. The following applies: cited from earlier work.
For data set [7] the following is noted: 37° C., pH 7.4; cited from earlier work.

In turn, `COc1cc(C(C)OC(=O)N2CO[C@@H]3[C@H](C)O[C@@H](O[C@H]4C[C@](O)(C(=O)CO)Cc5c(O)c6c(c(O)c54)C(=O)c4c(OC)cccc4C6=O)C[C@@H]32)c([N+](=O)[O-])cc1OCC(=O)NCCOCCOCCOCCN=[N+]=[N-]` (mixture of isomers) [Azido-PEG-photodoxazolidine] showed an IC50 in data set [1] (10 min) of 81 ± 7 nM. In addition, the “quantum yield, fold larger than photodoxazolidine” value in data set [2] is on record as 5-10 fold. For the same compound, the doxorubicin released in data set [2] (40 sec irradiation, 12.4 mW laser at 325 nm) is 9.2%. Further, the quantum yield in data set [2] (ACN, 325 nm, average of triplicate) is recorded as 0.025; in data set [2] (stated as suspected), 0.01-0.02. Moreover, in data set [3], the “cellular uptake (cellular fluorescence)” value was “only marginally improved uptake over doxorubicin”.

Turning to `COc1cccc2c1C(=O)c1c(O)c3c(c(O)c1C2=O)C[C@@](O)(C(=O)CO)C[C@@H]3O[C@H]1C[C@H](N)[C@H](O)[C@H](C)O1` [Dox, doxorubicin, reference compound], the IC50 was 10000 nM in data set [1] (3 h treatment, read-out: IC50) and 360 ± 30 nM in data set [5] (MDA-MB-231, 3 h treatment, read-out: IC50). Besides, the body weight change result in data set [4] is on record as “significant weight loss”.

Consider `COc1cccc2c1C(=O)c1c(O)c3c(c(O)c1C2=O)C[C@@](O)(C(=O)CO)C[C@@H]3OC1CC2C(OCN2CN2COC3C(C)OC(O[C@H]4C[C@](O)(C(=O)CO)Cc5c(O)c6c(c(O)c54)C(=O)c4c(OC)cccc4C6=O)CC32)C(C)O1` (stereo partly shown) [DoxF], for which the “anti-tumor activity, fold above doxorubicin” value in data set [6] is “approximately 100 fold”.

Turning to `COc1cccc2c1C(=O)c1c(O)c3c(c(O)c1C2=O)C[C@@](O)(C(=O)CO)C[C@@H]3O[C@H]1C[C@@H]2NCO[C@@H]2[C@H](C)O1` [Doxaz, doxazolidine, reference compound], the concentration for half-maximal inhibition (IC50) in data set [1] (3 h) is 3 ± 0.2 nM; in data set [5] (MDA-MB-231, 3 h) it was 5 to 10 nM. Further, the half-life in data set [7] is on record as 3 min.

The values are drawn from patent US10912767B2, “Anthracycline prodrugs and methods of making and using the same” (THE REGENTS OF THE UNIVERSITY OF COLORADO, priority 2015, dated 2021).
